Measurements reported in article PMC9643649, “Engineering Enzyme Substrate Scope Complementarity for Promiscuous Cascade Synthesis of 1,2‐Amino Alcohols” (Angewandte Chemie (International Ed. in English), 2022).

Biological target: T1, RgnTDC (Mediterraneibacter gnavus, UniProt A7B1V0)
T1 construct: gene RUMGNA_01526; recombinant, purified; construct details only in the supplement
Assay: decarboxylation turnover assay of purified enzyme
Assay type: biochemical
Details: native substrate

N[C@@H](Cc1c[nH]c2ccccc12)C(=O)O [Trp]
decarboxylation turnover assay of purified enzyme: we observed only a slight decrease in activity on Trp and Phe
